Measurements: ChEMBL document CHEMBL1155572, “Sesquiterpene quinols/quinones from the Micronesian sponge Petrosaspongia metachromia” (J Nat Prod, 2000)
Values after ≈ are worked out from the molar mass of the structure shown.

Test: Toxicity against brine shrimp
Assay type: organism-based
Conditions: artemia, in vivo

COC(=O)c1cc(O)c(O)c2c1[C@]1(C)CC[C@H]3C(C)(C)CCC[C@]3(C)[C@H]1C2 [PELOROL]
LC50: 5 µg/mL (≈ 13.4 µM)
